Like-named read-outs stand apart in the source and are kept apart here.
Biological target: T1, PARK7 (Homo sapiens, UniProt Q99497)
T1 sequence (Q99497 1-189): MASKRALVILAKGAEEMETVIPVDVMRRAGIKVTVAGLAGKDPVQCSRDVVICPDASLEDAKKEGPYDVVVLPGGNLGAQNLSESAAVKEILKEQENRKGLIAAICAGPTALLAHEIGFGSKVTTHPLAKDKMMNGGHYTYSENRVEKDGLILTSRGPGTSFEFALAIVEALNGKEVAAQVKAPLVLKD
Experiment: FP assay with Rhodamine110 probe JYQ-107 (IC50 and hit validation)
Type: binding
Parameters: GST (N, cleaved yes); made in house; host or cells: E. coli BL21(DE3) Rosetta2
Settings: for inhibition at 12.5 µM: read-out: FP assay %Inhibiton (12.5 µM); for inhibition at 37.5 µM: read-out: FP assay %Inhibiton (37.5 µM); for inhibition at 100 µM: read-out: FP assay %Inhibiton (100 µM)
Method: The assay was performed using the conditions as described above with a reaction volume of 20 μL per well in triplicate. Stock solutions of JYQ-88 of 1 and 0.1 mM were prepared. […] The FP signal was monitored with a BMG Labtech PHERAstar plate reader (λex/em 480/520 nm) for 2 h.
The validation was performed using the conditions as described above with a reaction volume of 20 μL per well in triplicate. […] The FP signal was monitored with a BMG Labtech PHERAstar plate reader (λex/em 480/520 nm) for 2 h. The relative loss of FP signal compared with reference controls was used to calculate the remaining enzyme activity. Inhibition percentage of these 40 compounds was plotted as a heatmap using GraphPad Prism 9.0.1 software. Color gradients indicate inhibition percentage, no inhibiton (white) and full inhibition (blue).

[1] = 12.5 µM compound, PARK7 0.2 μM, 1 h preincubation, JYQ-107 20 nM
[2] = 37.5 µM compound, PARK7 0.2 μM, 1 h preincubation, JYQ-107 20 nM
[3] = 100 µM compound, PARK7 0.2 μM, 1 h preincubation, JYQ-107 20 nM

Row | inhibition at 12.5 µM [1] [%] | inhibition at 37.5 µM [2] [%] | inhibition at 100 µM [3] [%] | SMILES | other results
1 | 90.8 | 95.6 | 100 | CCc1ccc(NC(=O)CCl)cc1 [Z56886400] | –
2 | 62.4 | 65.9 | 100 | O=C(CCl)Nc1ccc(SC(F)F)cc1 [Z56896308] | –
3 | 68.3 | 66.1 | 100 | COc1ccccc1CN(C)C(=O)CCl [Z57051055] | –
4 | 88.4 | 89.7 | 100 | CC(c1ccccc1)N(C)C(=O)CCl (stereo not drawn) [Z86023354] | –
5 | 84.2 | 85.1 | 100 | O=C(CCl)Nc1ccc(N2CCCCCC2)cc1 [Z190662892] | –
6 | 11.4 | 16.2 | 54.4 | Cc1cc(C(=O)CCl)c(C)[nH]1 [Z235333089] | –
7 | 23.8 | 25.8 | 68 | NC(=O)c1csc(C(=O)CCl)c1 [Z802671642] | –
8 | 79.5 | 81.3 | 100 | CC(c1ccc(Cl)cc1)N(C)C(=O)CCl (stereo not drawn) [Z1562123076] | –
9 | – | – | – | COc1ccc(NS(=O)(=O)c2ccc(S(=O)(=O)F)cc2)cn1 [Z1672273218] | inhibition at 12.5 µM: 79.5%; inhibition at 37.5 µM: 83.8%; inhibition at 100 µM: 100%
10 | – | – | – | Cn1c(=O)ccn(CC(=O)Nc2cccc(S(=O)(=O)F)c2)c1=O [Z1713568698] | inhibition at 12.5 µM: 80.3%; inhibition at 37.5 µM: 78.2%; inhibition at 100 µM: 100%
11 | – | – | – | O=C(Nc1cccc(S(=O)(=O)F)c1)C1CCCC1 [Z1713569513] | FP assay %Inhibiton (12.5 µM) [1]: 67.6%; FP assay %Inhibiton (37.5 µM) [2]: 76.9%; FP assay %Inhibiton (100 µM) [3]: 100.0%
12 | – | – | – | COC(=O)Nc1ccc(S(=O)(=O)F)cc1[N+](=O)[O-] [Z1741956298] | FP assay %Inhibiton (12.5 µM) [1]: 72.6%; FP assay %Inhibiton (37.5 µM) [2]: 75.8%; FP assay %Inhibiton (100 µM) [3]: 100.0%
13 | – | – | – | O=C1CCC(CC(=O)Nc2cccc(S(=O)(=O)F)c2)CC1 [Z1832812448] | inhibition at 12.5 µM: 0%; inhibition at 37.5 µM: 0%; inhibition at 100 µM: 0%
14 | 0 | 0 | 23.5 | O=C(CCl)c1ccccn1 [Z1954803958] | –
15 | 4.5 | 7.6 | 51.6 | O=C(CCl)c1cscn1 [Z2491497305] | –
16 | 20.7 | 37.4 | 88.1 | O=C(CCl)c1ccc(F)c(Cl)c1 [Z2492395560] | –
17 | – | – | – | O=C(NCCCS(=O)(=O)F)c1cccs1 [Z3267389796] | FP assay %Inhibiton (12.5 µM) [1]: 83.1%; FP assay %Inhibiton (37.5 µM) [2]: 80.1%; FP assay %Inhibiton (100 µM) [3]: 100.0%
18 | – | – | – | O=[N+]([O-])c1ccc(C(F)(F)F)c(S(=O)(=O)F)c1 [Z3396482545] | FP assay %Inhibiton (12.5 µM) [1]: 36.7%; FP assay %Inhibiton (37.5 µM) [2]: 36.2%; FP assay %Inhibiton (100 µM) [3]: 92.4%

Reference: publication PMC9574860, “Chemical Toolkit for PARK7: Potent, Selective, and High-Throughput” (Journal of Medicinal Chemistry, 2022)
